Data on one compound can be found in patent US20240360143A1, “[1,2,4]TRIAZOLO[4,3-A]PYRIMIDIN-7(8H)-ONE AS MITOCHONDRIAL PYRUVATE CARRIER INHIBITORS FOR USE IN THE TREATMENT OF CANCER” (MPC THERAPEUTICS SA, priority 2021, published 2024).

Molecules are shown by their SMILES.

The assay deals with B16F10 tumors modified to express HER2. Description: Adoptive cell transfer of HER2-CAR T cells produced with compound, B16 melanoma expressing HER2. The assay is classed as in vivo, mouse. On the procedure: For each retroviral preparation, 8×10^6 Phoenix ECO cells (ATCC, CRL-3214) were plated in a T150 tissue culture flask in RPMI medium supplemented with 10% FCS, 10 mM HEPES and 50 U/ml Penicillin-Streptomycin. On the next day, cells were transfected with 21 μg of the retroviral construct with Turbofect transfection reagent (Thermo Fischer Scientific), according to the manufacturer protocol. The medium was changed daily and collected at 48 h and 72 h post transfection. 48 h and 72 h virus supernatants were pooled and sedimented at 22′000 rcf for 2 h at 4° C. Finally, retrovirus pellets were resuspended in 2 ml of full RPMI medium and divided in 8 aliquots of 250 μl each, which were snap-frozen on dry ice and stored at −80° C.
Spleens from wild type CD45.1.2 mice were smashed on a 70 μm cell strainer. CD8 T cells were purified using the Easy SepTM Mouse CD8+ T Cell Isolation Kit (StemCell) according to the manufacturer protocol. 0.5×10^6 CD8 T cells were plated in 48 well plates in 0.5 ml of complete RPMI 1640 medium supplemented with 10% FCS, antibiotics and 50 IU/ml of recombinant human IL-2, and exposed to either DMSO or 20 μM Compound 45. Mouse T-cells were activated with Activator CD3/CD28 Dynabeads (Gibco) at a ratio of 2 beads per cell. Retroviral infection was conducted at 37° C. for 24 h. Untreated 48 well plates were coated for 24 h with 20 μg/ml of recombinant human fibronectin (Takara Clontech) at 4° C., followed by PBS 2% BSA for 30 min at RT and finally washed with PBS. One aliquot of concentrated retroviruses was plated in each fibronectin-coated 48 well plates and centrifuged for 90 min at 2′000 rcf and 32° C. Then, 0.5×10^6 of 24 h-activated CD8 T cells were added on top of the viruses and spun for 10 min at 400 rcf and 32° C. On day 3, the medium was replaced with 10 IU/ml recombinant human IL-2, 10 ng/ml recombinant human IL-7 and 10 ng/ml recombinant human IL-15, containing either DMSO or 20 μM Compound 45. Cells were then split every second day.
CD45.2 C57BL/6 mice were engrafted subcutaneously with 4×10^5 B16F10 tumors modified to express HER2. Six days later, mice were lymphodepleted with 100 mg/kg cyclophosphamide (Sigma Aldrich, C7397) injected i.p., and homogeneous groups were constituted with regard to tumor volume. T cells (5×10^6) were adoptively transferred i.v. on the next day. Tumor volumes were measured three times a week with a caliper and calculated using the formula: V=π×[d2×D]/6, where d is the minor tumor axis and D is the major tumor axis. Tumors were collected and separated from skin. Single cell suspensions were obtained with the Mouse Tumor Dissociation Kit (Miltenyi, 130-096-730) according to the manufacturer protocol. Spleen and draining lymph node were smashed on a 70 μm cell strainer. Single cell suspensions were stained with antibodies before flow cytometry analysis.
Polyclonal CD8 T cells from wild type mice were activated in the presence of DMSO or 20 μM Compound 45 and then retrovirally transduced with a HER2-CAR construct (FIG. 4A). […] No difference in percentages of memory precursor effector T cells could be detected (FIG. 4F) and TCF1-expressing T cells (FIG. 4G). […] More tumor-infiltrating Compound 45-treated CAR T cells expressed TCF1 (FIG. 5H). […] Finally, fewer Compound 45-treated CAR T cells were expressing the inhibitory molecules PD1 and TIM3, indicating a less exhausted phenotype (FIG. 5K).

Consider `O=c1cc(Cc2ccccc2)n2c(SCc3c(F)cccc3Cl)nnc2[nH]1` [Compound 45, 5-benzyl-3-[(2-chloro-6-fluorobenzyl)sulfanyl][1,2,4]triazolo[4,3-a]pyrimidin-7 (8H)-one], for which the tumor growth result (HER2CAR T cells produced with 20 μM compound, 5×10^6 cells i.v. (FIGS. 4B and 4C)) is “significantly suppress”. Besides, the “number of CAR T cells in blood” value (blood 12 days after ACT (FIG. 4D)) is listed as “no difference”. Moreover, the “percentage of HER2CAR T cells forming short-lived effector T cells” value (blood 12 days after ACT (FIG. 4E)) is reported as “significantly reduced”. Further, the “percentages of memory precursor effector T cells” value (blood 12 days after ACT (FIG. 4F)) was “No difference”. The “percentages of TCF1-expressing T cells” value (blood 12 days after ACT (FIG. 4G)) was “No difference”. In addition, the “central memory T cell differentiation” value was “Neither in the draining lymph node nor in the spleen could be observed a difference” (draining lymph node (FIG. 5B)) and “Neither in the draining lymph node nor in the spleen could be observed a difference” (spleen (FIG. 5E)). Further, the “HER2CAR T cells expressing TCF1” value by setting is: (draining lymph node (FIG. 5C)) “Neither in the draining lymph node nor in the spleen could be observed a difference”; (spleen (FIG. 5F)) “Neither in the draining lymph node nor in the spleen could be observed a difference”. In addition, where the note is “spleen (FIG. 5D)”, the “engraftment of HER2CAR T cells in the spleen” value was “increase was significant”. The “CAR T cells in tumors” value (tumor (FIG. 5G)) is given as “significantly more”. Moreover, the “tumor-infiltrating CAR T cells expressing TCF1” value (tumor (FIG. 5H)) is on record as “More”. Moreover, the “CAR T cells expressing the inhibitory molecules PD1 and TIM3” value (tumor (FIG. 5K)) is on record as “fewer”. Moreover, under “tumor, co-expression of TCF1 with PD1 (FIG. 5I)”, the “progenitor exhausted T cells (TCF1-positive)” value was “more”. The “terminally differentiated exhausted T cells (TCF1-negative)” value (tumor, co-expression of TCF1 with PD1 (FIG. 5J)) is given as “less”. Also, the “engraftment of HER2CAR T cells in the tumor-draining lymph nodes” value (tumor-draining lymph nodes (FIG. 5A)) is “trend towards an increased engraftment”.
